Results on 6 compounds are retold here after patent US20150250892A1, “BIODEGRADABLE POLYMERIC BUFFERS” (Northeastern University, priority 2012, published 2015).

One series relates to SKOV3 cells. As to the kind of experiment: Cytotoxicity evaluation of drug loaded HA nanoparticles on ovarian cancer cells. Particulars: free drug. It counts as cell-based. From the text: 9) Cytotoxicity Evaluation of Drug Loaded HA Nanoparticles on Ovarian Cancer Cells: […]
The conditions of series [1]: of the free drug; cited from earlier work.
Series [2] relates to MDA-MB-231 breast cancer cell lines. As to the kind of experiment: In vitro cell uptake of free doxorubicin (DOX) and DOX loaded HA polymers. Particulars: 20 μM, 1 h incubation, fluorescence microscopy. It counts as cell-based. On the procedure: In order to determine the pH altering effects of the hyaluronic acid-lipid modified polymers and cellular trafficking of drugs, a model fluorescent drug, doxorubicin, was encapsulated into the unmodified and modified HA polymers and tested on MDA-MB-231 breast cancer cell lines.
After 1 h of incubation, the cells were washed thrice with PBS and the uptake of DOX in the cells was observed using a fluorescence microscope.

Setting [3] is: Homo sapiens, SK-OV-3, 48 hour timepoint.

On to `CC[C@@]1(O)C(=O)OCc2c1cc1n(c2=O)Cc2cc3ccccc3nc2-1` [Camptothecin], for which, in the series on SKOV3 cells (setting [3]), inhibition was half-maximal at 0.82 µM (IC50). Consider `COc1cccc2c1C(=O)c1c(O)c3c(c(O)c1C2=O)C[C@@](O)(C(=O)CO)C[C@@H]3O[C@H]1C[C@H](N)[C@H](O)[C@H](C)O1` [Doxorubicin], for which the logP in series [1] was −0.5. In the series with SKOV3 cells (48 hour timepoint), this compound returned an IC50 of 5.78 µM. Besides, the “uptake of DOX in the nucleus” value in series [2] was “much lower in the nucleus”. Turning to `COc1cc([C@@H]2c3cc4c(cc3[C@@H](O[C@@H]3O[C@@H]5CO[C@@H](C)O[C@H]5[C@H](O)[C@H]3O)[C@H]3COC(=O)[C@H]23)OCO4)cc(OC)c1O` [Etoposide], half-maximal inhibition in the series with SKOV3 cells (setting [3]) (IC50) required 4.58 µM. In other words, the single-digit micromolar range. On to `CC(=O)[C@]1(O)Cc2c(O)c3c(c(O)c2[C@@H](O[C@H]2C[C@H](N)[C@H](O)[C@H](C)O2)C1)C(=O)c1ccccc1C3=O` [Idarubicin], for which the lipophilicity (logP) in series [1] is reported as 0.2. For the same compound, the IC50 in the series with SKOV3 cells (setting [3]) stood at 3.82 µM. In the series on SKOV3 cells (setting [3]), `CC(=O)O[C@H]1C(=O)[C@@]2(C)[C@H]([C@H](OC(=O)c3ccccc3)[C@]3(O)C[C@H](OC(=O)[C@H](O)[C@@H](NC(=O)c4ccccc4)c4ccccc4)C(C)=C1C3(C)C)[C@]1(OC(C)=O)CO[C@@H]1C[C@@H]2O` [Paclitaxel] yielded an IC50 of 0.0101 µM. This lies in the double-digit nanomolar range. `CC[C@@]1(O)C(=O)OCc2c1cc1n(c2=O)Cc2cc3c(CN(C)C)c(O)ccc3nc2-1` [Topotecan]: the logP in series [1] is reported as 0.8. This compound also had an IC50 with SKOV3 cells (setting [3]) of 0.22 µM.
